Like-named read-outs stand apart in the source and are kept apart here.
How the values were obtained:
[1] = tested on: chimeric replicon with genotype 3a NS5B; test: microbe, parasite or virus in culture; type: cell-based, HCV genotype 3a; details: Hepatitis C virus, read-out: 3a chimera 5% FBS EC50
[2] = tested on: HCV NS5B polymerase 1a-H77-C316Y; test: biochemical; design: species or system HCV genotype 1a; details: ratio of enzyme IC50s, 1a H77-C316Y / 1a H77
Procedure, shortened: (§1)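 Incorporation of [3H]UTP (0.284 μM), alongside 20 μM each CTP and ATP, into RNA copied from a 5 nM 2.1 kb genotype 1b negative-strand template was measured after 3 h at 30° C using purified His-tagged NS5B truncated at residue 570. Product was spermine-precipitated, filtered and scintillation-counted; nonlinear regression gave IC50.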

[3] = target: T1, HCV NS5B polymerase 1a-H77 (Hepatitis C virus genotype 1a, UniProt P27958); test: biochemical; design: species or system HCV genotype 1a; details: enzyme, strain 1a H77; read-out: HCV Polymerase Strain 1a H77 IC50
T1 construct: six-histidine tag; made in house; host or cells: E. coli
Procedure, shortened: as §1

[4] = target: T2, HCV NS5B polymerase 1a-H77-C316Y (Hepatitis C virus genotype 1a, UniProt P27958, C2736Y); test: biochemical; design: species or system HCV genotype 1a
T2 construct: six-histidine tag; made in house; host or cells: E. coli
Procedure, shortened: as §1

[5] = tested on: chimeric replicon with genotype 2b NS5B; test: microbe, parasite or virus in culture; type: cell-based, HCV genotype 2b; details: Hepatitis C virus, read-out: 2b chimera 5% FBS EC50
[6] = tested on: HCV 1a-H77-C316Y transient subgenomic replicon in Huh-7 derived cell line; test: microbe, parasite or virus in culture; type: cell-based, HCV genotype 1a; details: for EC50: Hepatitis C virus, Huh-7, read-out: Transient Replicon 1a H77-C316Y 5% FBS EC50; for Transient Replicon Fold Resistance C316Y/1a: ratio of transient replicon EC50s, C316Y / 1a H77
Procedure, shortened: (§2)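 Subgenomic replicon RNA (no Neo gene) electroporated into Huh-7-derived cells, plated at 5×10^3 cells/well; a 4 h plate gauged transfection efficiency. Cells exposed to 3-fold compound dilutions (0.5% DMSO) for 4 days at 37° C, then lysed for luciferase readout; EC50 calculated.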

[7] = tested on: HCV 1a-H77 transient subgenomic replicon in Huh-7 derived cell line; test: microbe, parasite or virus in culture; type: cell-based, HCV genotype 1a; details: Hepatitis C virus, Huh-7; transient replicon, 5% FBS; read-out: Transient Replicon 1a H77 5% FBS EC50
Procedure, shortened: as §2

[8] = tested on: HCV 1a-H77 subgenomic replicon; test: microbe, parasite or virus in culture; type: cell-based, HCV genotype 1a; details: Hepatitis C virus, stable replicon
[9] = target: T3, HCV NS5B polymerase 1b BK strain (Hepatitis C virus genotype 1b, UniProt P26663); test: HCV NS5B polymerase enzymatic inhibition assay, strain 1b BK; type: biochemical; details: enzyme, strain 1b BK; read-out: HCV Polymerase Strain 1b BK IC50
T3 construct: six-histidine tag; made in house; host or cells: E. coli
Procedure, shortened: as §1

[10] = tested on: chimeric replicon with genotype 4a NS5B; test: microbe, parasite or virus in culture; type: cell-based, HCV genotype 4a; details: Hepatitis C virus, read-out: 4a chimera 5% FBS EC50
[11] = tested on: chimeric replicon with 2a-J6CF-derived NS5B; test: microbe, parasite or virus in culture; type: cell-based, HCV genotype 2a; details: Hepatitis C virus, read-out: 2a chimera 5% FBS EC50
[12] = tested on: HCV 1b-BB7 subgenomic replicon; test: microbe, parasite or virus in culture; type: cell-based, HCV genotype 1b; details: Hepatitis C virus, stable replicon
[13] = 5% FBS, absence of human plasma, read-out: Stable Replicon 1a H77 5% FBS EC50
[14] = strain 1a H77, 5% FBS + 40% human plasma, read-out: 1a H77 5% FBS + 40% Human Plasma EC50
[15] = strain 1a H77, 5% FBS, no human plasma, read-out: 1a H77 5% FBS EC50
[16] = strain 1a H77, 5% FBS, read-out: 1a H77 5% FBS EC50
[17] = strain 1b BB7, 5% FBS + 40% human plasma, read-out: 1b BB7 5% FBS + 40% Human Plasma EC50
[18] = strain 1b BB7, 5% FBS, no human plasma, read-out: 1b BB7 5% FBS EC50
[19] = strain 1b BB7, 5% FBS, read-out: 1b BB7 5% FBS EC50

T1 sequence (P27958 2421-2990): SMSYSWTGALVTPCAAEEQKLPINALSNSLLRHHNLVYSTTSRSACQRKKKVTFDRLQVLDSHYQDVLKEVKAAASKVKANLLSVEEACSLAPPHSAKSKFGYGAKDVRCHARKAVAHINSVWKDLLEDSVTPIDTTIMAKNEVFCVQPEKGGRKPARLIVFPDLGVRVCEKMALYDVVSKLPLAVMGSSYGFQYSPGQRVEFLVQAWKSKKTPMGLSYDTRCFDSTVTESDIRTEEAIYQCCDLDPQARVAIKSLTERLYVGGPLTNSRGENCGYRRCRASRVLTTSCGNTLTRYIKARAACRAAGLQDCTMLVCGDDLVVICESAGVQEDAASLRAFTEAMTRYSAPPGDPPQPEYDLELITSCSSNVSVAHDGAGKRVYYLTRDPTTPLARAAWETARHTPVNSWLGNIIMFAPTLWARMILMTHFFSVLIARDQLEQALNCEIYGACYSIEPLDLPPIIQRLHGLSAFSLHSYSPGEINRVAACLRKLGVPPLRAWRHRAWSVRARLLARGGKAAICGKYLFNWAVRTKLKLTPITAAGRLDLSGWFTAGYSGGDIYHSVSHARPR
T3 sequence (P26663 2420-2989): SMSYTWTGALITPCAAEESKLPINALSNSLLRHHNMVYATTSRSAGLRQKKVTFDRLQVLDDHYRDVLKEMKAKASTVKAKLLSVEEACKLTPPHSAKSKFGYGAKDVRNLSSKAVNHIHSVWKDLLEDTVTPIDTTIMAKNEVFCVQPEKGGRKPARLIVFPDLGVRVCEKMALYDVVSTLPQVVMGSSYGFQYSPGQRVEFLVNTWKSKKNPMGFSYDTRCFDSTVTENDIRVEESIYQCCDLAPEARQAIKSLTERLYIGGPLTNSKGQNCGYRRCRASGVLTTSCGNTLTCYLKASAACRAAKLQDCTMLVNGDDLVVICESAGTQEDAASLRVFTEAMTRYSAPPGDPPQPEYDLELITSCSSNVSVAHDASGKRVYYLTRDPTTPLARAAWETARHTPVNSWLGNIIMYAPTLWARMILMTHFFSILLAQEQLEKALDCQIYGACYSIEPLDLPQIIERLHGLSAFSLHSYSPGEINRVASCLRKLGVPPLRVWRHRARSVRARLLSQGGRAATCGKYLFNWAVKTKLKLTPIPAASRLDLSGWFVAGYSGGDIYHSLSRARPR
T2 sequence (P27958 2421-2990 C2736Y): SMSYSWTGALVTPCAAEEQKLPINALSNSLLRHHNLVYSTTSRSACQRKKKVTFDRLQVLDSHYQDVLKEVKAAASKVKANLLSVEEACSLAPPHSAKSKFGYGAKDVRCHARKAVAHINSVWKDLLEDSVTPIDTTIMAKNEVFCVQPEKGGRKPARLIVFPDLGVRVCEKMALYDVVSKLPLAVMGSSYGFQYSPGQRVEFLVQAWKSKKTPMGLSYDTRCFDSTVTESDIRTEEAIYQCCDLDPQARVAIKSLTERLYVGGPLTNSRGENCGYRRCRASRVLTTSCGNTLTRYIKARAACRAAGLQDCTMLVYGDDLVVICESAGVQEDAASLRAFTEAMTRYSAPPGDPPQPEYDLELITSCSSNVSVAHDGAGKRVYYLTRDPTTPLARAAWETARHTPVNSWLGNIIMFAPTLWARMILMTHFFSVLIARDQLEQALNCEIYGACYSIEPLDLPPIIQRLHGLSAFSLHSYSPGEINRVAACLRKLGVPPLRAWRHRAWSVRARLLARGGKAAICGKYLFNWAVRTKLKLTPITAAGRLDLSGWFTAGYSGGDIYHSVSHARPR

| Structure (SMILES) | EC50 [1] [µM] | C316Y/1a Fold Resistance [2] [fold] | IC50 [3] [µM] | IC50 [4] [µM] | EC50 [5] [µM] | EC50 [6] [µM] | Transient Replicon Fold Resistance C316Y/1a [6] [fold] | EC50 [7] [µM] | EC50 [8, 13] [µM] | EC50 [8, 14] [µM] | EC50 [8, 15] [µM] | EC50 [8, 16] [µM] | IC50 [9] [µM] | EC50 [10] [µM] | EC50 [11] [µM] | EC50 [12, 17] [µM] | EC50 [12, 18] [µM] | EC50 [12, 19] [µM] |
| --- | --- | --- | --- | --- | --- | --- | --- | --- | --- | --- | --- | --- | --- | --- | --- | --- | --- | --- |
| CS(=O)(=O)N(CCCCCO)c1cc2oc(-c3ccc(F)cc3)c(C3=NOCN3)c2cc1C1CC1 [Example 147, N-[5-cyclopropyl-3-(4,5-dihydro-1,2,4-oxadiazol-3-yl)-2-(4-fluorophenyl)-1-benzofuran-6-yl]-N-(5-hydroxypentyl)methanesulfonamide] | 0.0103 | 14 | 0.0035 | 0.049 | 0.062 | 0.0778 | 8 | 0.0097 | 0.0089 | 1.71 | 0.0089 | 0.0089 | 0.009 | 0.0659 | 0.0848 | 1.83 | 0.0098 | 0.0098 |
| CS(=O)(=O)CCCCN(c1cc2oc(-c3ccc(F)cc3)c(C3=NOCN3)c2cc1C1CC1)S(C)(=O)=O [Example 148, N-[5-cyclopropyl-3-(4,5-dihydro-1,2,4-oxadiazol-3-yl)-2-(4-fluorophenyl)-1-benzofuran-6-yl]-N-[4-(methylsulfonyl)butyl]methanesulfonamide] | 0.0082 | 8 | 0.0039 | 0.03 | 0.032 | 0.109 | 21 | 0.0052 | 0.0041 | 1.29 | 0.0041 | 0.0041 | 0.006 | 0.0397 | 0.0458 | 0.688 | 0.004 | 0.004 |
| CS(=O)(=O)N(CCC1CCS(=O)(=O)C1)c1cc2oc(-c3ccc(F)cc3)c(C3=NOCN3)c2cc1C1CC1 (stereo not drawn) [Example 149, N-[5-cyclopropyl-3-(4,5-dihydro-1,2,4-oxadiazol-3-yl)-2-(4-fluorophenyl)-1-benzofuran-6-yl]-N-[2-(1,1-dioxidotetrahydrothiophen-3-yl)ethyl]methanesulfonamide] | 0.007 | 12 | 0.0035 | 0.041 | 0.034 | 0.124 | 17 | 0.0073 | 0.0088 | 1.02 | 0.0088 | 0.0088 | 0.009 | 0.021 | 0.054 | 0.643 | 0.004 | 0.004 |
| CC(C)CCN(c1cc2oc(-c3ccc(F)cc3)c(C3=NOCN3)c2cc1C1CC1)S(C)(=O)=O [Example 156, N-[5-cyclopropyl-3-(4,5-dihydro-1,2,4-oxadiazol-3-yl)-2-(4-fluorophenyl)-1-benzofuran-6-yl]-N-(3-methylbutyl)methanesulfonamide] | 0.0651 | 5 | 0.0063 | 0.034 | 0.893 | 0.37 | 13 | 0.0291 | 0.0418 | 2.3 | 0.0418 | 0.0418 | 0.027 | 0.623 | 0.718 | 2.98 | 0.0709 | 0.0709 |

From patent US20160355530A1, “HEPATITIS C INHIBITORS AND USES THEREOF” (AbbVie Inc., priority 2010, published 2016)
